Experimental data taken from PubChem BioAssay AID1918932 (Molecular Pharmacology Branch, DTP, NCI, 2023).
Where “and” joins values, the source holds several entries; their conditions need not be identical. Equal values may be shown once.

Tested on: 171881-019-R-J1-PDC complex spheroid viability
Test: Anticancer human tumor 171881-019-R-J1-PDC patient-derived invasive breast carcinoma cell line growth inhibition
Details: for viability, T/C: stronger effect = lower value; active means viability on the fitted dose curve at most 10% of control; inactive means the rest
How it was run: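 Complex spheroids of tumor cells with HUVEC and human MSCs, exposed to iadademstat combined with other agents. Each agent tested in half-log steps from near clinical Cmax (else 10 microM top), DMSO ≤0.25%.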

[1] = curve of first compound, second compound 0.1 µM
[2] = curve of first compound, second compound 0.316 µM
[3] = curve of first compound, second compound 1 µM
[4] = curve of first compound, second compound 3.16 µM
[5] = curve of first compound, second compound 10 µM
[6] = second compound 0.1 µM, first compound 0.0316 µM
[7] = second compound 0.1 µM, first compound 0.1 µM
[8] = second compound 0.1 µM, first compound 0.316 µM
[9] = second compound 0.1 µM, first compound 1 µM
[10] = second compound 0.1 µM, first compound 3.16 µM
[11] = second compound 0.1 µM, first compound 10 µM
[12] = second compound 0.316 µM, first compound 0.0316 µM
[13] = second compound 0.316 µM, first compound 0.1 µM
[14] = second compound 0.316 µM, first compound 0.316 µM
[15] = second compound 0.316 µM, first compound 1 µM
[16] = second compound 0.316 µM, first compound 3.16 µM
[17] = second compound 0.316 µM, first compound 10 µM
[18] = second compound 1 µM, first compound 0.0316 µM
[19] = second compound 1 µM, first compound 0.1 µM
[20] = second compound 1 µM, first compound 0.316 µM
[21] = second compound 1 µM, first compound 1 µM
[22] = second compound 1 µM, first compound 3.16 µM
[23] = second compound 1 µM, first compound 10 µM
[24] = second compound 3.16 µM, first compound 0.0316 µM
[25] = second compound 3.16 µM, first compound 0.1 µM
[26] = second compound 3.16 µM, first compound 0.316 µM
[27] = second compound 3.16 µM, first compound 1 µM
[28] = second compound 3.16 µM, first compound 3.16 µM
[29] = second compound 3.16 µM, first compound 10 µM
[30] = second compound 10 µM, first compound 0.0316 µM
[31] = second compound 10 µM, first compound 0.1 µM
[32] = second compound 10 µM, first compound 0.316 µM
[33] = second compound 10 µM, first compound 1 µM
[34] = second compound 10 µM, first compound 3.16 µM
[35] = second compound 10 µM, first compound 10 µM

O=C(c1cc(Cc2n[nH]c(=O)c3ccccc23)ccc1F)N1CCN(C(=O)C2CC2)CC1 + NC1CCC(NC2CC2c2ccccc2)CC1
> 10000 nM: IC50 [1] | IC50 [2] | IC50 [3] | IC50 [4] | IC50 [5]
inactive: viability, T/C [6] 85.3% | viability, T/C [7] 86.6% | viability, T/C [8] 82.4% | viability, T/C [9] 86.6% | viability, T/C [10] 84.7% | viability, T/C [11] 85.1% | viability, T/C [12] 91.7% | viability, T/C [13] 82.7% | viability, T/C [14] 87.7% | viability, T/C [15] 79.6% | viability, T/C [16] 86.2% | viability, T/C [17] 82% | viability, T/C [18] 90.6% | viability, T/C [19] 95.9% | viability, T/C [20] 88.9% | viability, T/C [21] 79.9% | viability, T/C [22] 85.8% | viability, T/C [23] 80% | viability, T/C [24] 99.8% | viability, T/C [25] 87.8% | viability, T/C [26] 86.3% | viability, T/C [27] 79.3% | viability, T/C [28] 88.4% | viability, T/C [29] 80.9% | viability, T/C [30] 83.8% | viability, T/C [31] 82.9% | viability, T/C [32] 78.3% | viability, T/C [33] 74.2% | viability, T/C [34] 81.9% | viability, T/C [35] 80.5%

CC1(C)CCC(CN2CCN(c3ccc(C(=O)NS(=O)(=O)c4ccc(NCC5CCOCC5)c([N+](=O)[O-])c4)c(Oc4cnc5[nH]ccc5c4)c3)CC2)=C(c2ccc(Cl)cc2)C1
active: viability, T/C (compound 10 µM) 3.33% and 4.05%
2200 nM and 1310 nM: IC50 (curve of compound)
inactive: viability, T/C (compound 0.0316 µM) 93.7% and 93.8% | viability, T/C (compound 0.1 µM) 87% and 96.2% | viability, T/C (compound 0.316 µM) 93% and 86.7% | viability, T/C (compound 1 µM) 77% and 58.6% | viability, T/C (compound 3.16 µM) 37.4% and 21.2%

CC(C)CC(NC(=O)C(Cc1ccccc1)NC(=O)c1cnccn1)B(O)O (stereo unspecified)
0.25% and 10.1%: viability, T/C (compound 0.01 µM)
0.41% and 17.8%: viability, T/C (compound 0.00316 µM)
1.12% and 20.1%: viability, T/C (compound 0.001 µM)
< 0.316 nM: IC50 (curve of compound)
active: viability, T/C (compound 0.0316 µM) 0.24% and 12% | viability, T/C (compound 0.1 µM) 0.17% and 6.28%
9.71% and 22.8%: viability, T/C (compound 0.000316 µM)

CC(C)c1c(-c2ccccc2)nc2c(C#N)c[nH]n2c1=O
inactive: viability, T/C (compound 0.0316 µM) 95.8% and 97.3% | viability, T/C (compound 0.1 µM) 92.4% and 99.1% | viability, T/C (compound 0.316 µM) 87.7% and 97.2% | viability, T/C (compound 1 µM) 89.9% and 88% | viability, T/C (compound 3.16 µM) 94% and 67.1% | viability, T/C (compound 10 µM) 95.2% and 19.2%
> 10000 nM and 4750 nM: IC50 (curve of compound)

CC1COCCN1c1cc(C2(S(C)(=N)=O)CC2)nc(-c2ccnc3[nH]ccc23)n1 (stereo unspecified) + NC1CC1c1ccc(-c2cccc(O)c2)cc1
1410 nM: IC50 [4]
1370 nM: IC50 [1]
1450 nM: IC50 [2]
1150 nM: IC50 [5]
1470 nM: IC50 [3]
active: viability, T/C [23] 9.48% | viability, T/C [29] 8.64% | viability, T/C [35] 8.98%
inactive: viability, T/C [6] 103% | viability, T/C [7] 102% | viability, T/C [8] 97.9% | viability, T/C [9] 59.6% | viability, T/C [10] 22.3% | viability, T/C [11] 9.45% | viability, T/C [12] 106% | viability, T/C [13] 103% | viability, T/C [14] 99.3% | viability, T/C [15] 61.1% | viability, T/C [16] 24.7% | viability, T/C [17] 9.56% | viability, T/C [18] 103% | viability, T/C [19] 104% | viability, T/C [20] 91.1% | viability, T/C [21] 63.5% | viability, T/C [22] 24.3% | viability, T/C [24] 99.5% | viability, T/C [25] 104% | viability, T/C [26] 96.9% | viability, T/C [27] 61.5% | viability, T/C [28] 21.8% | viability, T/C [30] 86.4% | viability, T/C [31] 87.7% | viability, T/C [32] 81.6% | viability, T/C [33] 53.3% | viability, T/C [34] 21.1%

CC(C)c1c(-c2ccccc2)nc2c(C#N)c[nH]n2c1=O + NC1CCC(NC2CC2c2ccccc2)CC1
inactive: viability, T/C [6] 89.7% | viability, T/C [7] 75.8% | viability, T/C [8] 82.7% | viability, T/C [9] 92.2% | viability, T/C [10] 82.9% | viability, T/C [11] 97.8% | viability, T/C [12] 90.7% | viability, T/C [13] 93.3% | viability, T/C [14] 82.6% | viability, T/C [15] 96.1% | viability, T/C [16] 94% | viability, T/C [17] 91.6% | viability, T/C [18] 93.8% | viability, T/C [19] 81.3% | viability, T/C [20] 85.5% | viability, T/C [21] 100% | viability, T/C [22] 81.5% | viability, T/C [23] 91.2% | viability, T/C [24] 96.1% | viability, T/C [25] 90.5% | viability, T/C [26] 94.3% | viability, T/C [27] 80.3% | viability, T/C [28] 101% | viability, T/C [29] 97.3% | viability, T/C [30] 87.2% | viability, T/C [31] 90.4% | viability, T/C [32] 77.3% | viability, T/C [33] 92.6% | viability, T/C [34] 93.4% | viability, T/C [35] 90.4%
> 10000 nM: IC50 [1] | IC50 [2] | IC50 [3] | IC50 [4] | IC50 [5]
